Results from paper PMC5384453, “A multi-functional PEGylated gold(III) compound: potent anti-cancer properties and self-assembly into nanostructures for drug co-delivery” (Chemical Science, 2016).

Assays:
[1] = Systemic toxicity in nude mice bearing HCT116 xenografts (body weight, H&E histopathology, blood biochemistry); type: in vivo; settings: HCT116 xenograft nude mice
Experimental: The anti-tumor experiments using mice were approved by the animal ethics committees of Jinan University and The University of Hong Kong. […]
every 2 days for 24 days. The control group received equal volume of PBS only.
During the treatment period, the tumor volume and body weight of the nude mice were measured per two days. The tumor volume was calculated by the equation:
Volume (mm3) = l×w2/2, where l and w were the length and width of the tumor. At the end of the treatment, the nude mice were sacrificed and the tumor weight was […]
H&E staining and immunohistochemical (IHC) analysis of mice tissues. For […]
formaldehyde, embedded with paraffin and sectioned. Subsequently, the tissues were stained with hematoxylin and eosin for histological observation under an optical microscope (magnification: 10×). The expression of p53, Ki67, VEGFR2 and TUNEL was determined by IHC methods as reported previously. S7
Hematological analysis of nude mice bearing HCT116 xenograft. The blood samples of mice without bearing HCT116 xenograft and xenograft-bearing mice treated with 1, 3 and PBS control were collected. The plasma was obtained by centrifuging the blood sample with speed at 3000 rpm. The plasma was then subjected to hematological analysis to determine biochemical indexes of alanine aminotransferase (ALT), asparatate aminotransferase (AST), globulin (GLB), blood urea nitrogen (BUN), uric acid (UA), creatinine (CREA), lactate dehydrogenase (LDH) and creatine kinase (CK) in blood of the mice.
A2780cis xenograft nude mice model was constructed by injecting 2.5×10^6 cells to the right back flank of female BALB/c nude mice. When the tumor volume […]
animal study. The A2780cis xenograft nude mice were randomly divided into 2 groups (n = 5 per group). 1 in PBS (4 mg/kg) or PBS solvent control were injected to the nude mice by intravenous injection once every 2–3 days for 13 days. During the treatment period, the tumor volume and body weight of the nude mice were measured

HCT116 cells = test: Time-dependent induction of apoptosis, Caspase-3/7 Green ReadyProbes fluorescence microscopy; type: cell-based, human; settings: HCT116, 2 μM, Caspase-3/7 Green Reagent
Experimental: B from 20.1 to 25 min and returned to initial conditions and equilibrated for 3 minutes.
The flow rate was 0.4 mL/min and the injection volume was 2 µL. The UPLC-QTOF-MS chromatograms of 1, 3, 4 and solvent control in acetonitrile were also recorded for the interpretation of UPLC-QTOF-MS chromatograms of the cell lysate.
Cellular uptake experiments. HCT116, A2780 and A2780adr (2×10 5 cells), and MIHA and NCM460 (3.5×10 5 cells) cells were grown on 6-well plates at 37 °C under an atmosphere of 5% CO2 for 48 h. The culture medium was then removed, washed with PBS solution, and incubated with culture medium containing nanostructures of 1 […]
Au1a (2 µM; with 1 vol% DMSO). At a predetermined time, the culture medium was removed and washed with PBS solution for three times. The cells were then harvested and dispersed in ice-cold water. An aliquot of the cell suspension was subjected to Bio-rad protein assay with a microtitre plate reader at the absorbance at 595 nm, using bovine serum albumin as the protein standard. […] The solution mixture was heated at 65 °C with shaking overnight, and the gold content was determined by ICP-MS. […]
then removed and washed with PBS solution. The cells were then incubated with culture medium containing nanostructures of 1 (2 µM) and CellEvent Caspase-3/7 Green ReadyProbes Reagent (30 µL), or Au1a (2 µM; with 1 vol% DMSO) and CellEvent Caspase-3/7 Green ReadyProbes Reagent (30 µL) at 37 °C under an atmosphere of 5% CO2. Fluorescence images at different time intervals were recorded by the fluorescence microscope without washing the cells. […]
once every 2–3 days. The tumor volume was calculated by the equation: Volume (mm3) = l×w2/2, where l and w were the length and width of the tumor. At the end of the treatment, the nude mice were sacrificed and the tumor weight was measured. […]
At a predetermined time, the culture medium was removed and washed with PBS solution for three times. […] An aliquot of the cell suspension was subjected to Bio-rad protein assay with a microtitre plate reader at the absorbance at 595 nm, using bovine serum albumin as the protein standard. […]

[2] = Hydrolysis in aqueous buffer solutions by 1H NMR; type: physicochemical; settings: 24 h, 37 °C; pH 4 (1), pH 4 or 7.4 (2)

Row | Molecule | blood biochemistry (organ damage indicators) ([1]; 4 mg kg^–1 i.v., 24 days, ALT, GLB, BUN, CK for 1) | histopathological analysis of tissues (H&E) ([1]; i.v., 24 days (3: 4 mg kg^–1)) | incubation time at which induction of apoptosis was apparent (HCT116 cells) [h] | mouse death / body weight ([1]; 2 or 4 mg kg^–1 i.v., 24 days) | change in 1H NMR spectra after incubation in buffer [2]
1 | COC(=O)c1ccc(C2=C3C=CC(=N3)C(c3ccccc3)=c3ccc4[n]3[Au+][n]3c(ccc32)C(c2ccccc2)=C2C=CC(=N2)C=4c2ccccc2)cc1.[Cl-] [Compound 3, [Au(TPP–COOCH3)]^+] | significant damage in the lung, liver and kidney of the mice | damage in normal lung, liver and kidney tissues |  |  | 
2 | [Au(TPP–COO–PEG5000–OCH3)]Cl [Compound 1] |  |  | 15 | no mouse death or significant loss in body weight | disappearance of peaks from protons of –COOCH 2CH 2–
3 | [Au(TPP–CONH–PEG5000–OCH3)]Cl [Compound 2] |  |  |  |  | no observable change in the NMR spectra
4 | C1=Cc2nc1c(-c1ccccc1)c1ccc([n-]1)c(-c1ccccc1)c1nc(c(-c3ccccc3)c3ccc([n-]3)c2-c2ccccc2)C=C1.[Au+3].[Cl-] [Au1a, [Au(TPP)]Cl, reference compound] |  |  | 12 |  | 
